In one experiment the test system is sigma receptor. The conditions noted are these: Sigma 1 and Sigma 2 for pentazocine; cited from earlier work.
Experiment [1] has as its system mechanical allodynia in mice exposed to the sciatic nerve injury. Briefly: Von Frey model in mice exposed to sciatic nerve injury (partial sciatic nerve ligation). The conditions noted are these: FIG. 5, 60 mg/kg subcutaneous, Day 11 after surgery, ipsilateral. The class given is in vivo. As for the experimental part: The partial sciatic nerve ligation model was used to induce neuropathic pain (Malmberg and Basbaum, Pain 76: 215-222, 1998). This model consists of injury to the sciatic nerve at mid-to high level. Briefly, mice were anaesthetized with halothane (induction: 3%; surgery: 1%) and the common sciatic nerve was exposed at the level of the mid-thigh of the right paw. In control animals (sham-operated mice), an identical dissection was performed on the right paw except that the sciatic nerve was not ligated (Control). Nociceptive sensitivity was then measured was quantified by measuring the hind paw withdrawal response to von Frey filament stimulation as mentioned above. Animals underwent surgery on day 0; 11 days after surgery BD-1063 was injected subcutaneously in one group and the responses to mechanical stimuli were determined by means of the von Frey model in this and the none-treated group (before surgery) a reference value was measured in order to determine a baseline value.

In experiment [2] the test system is capsaicin-induced allodynia. Description: Von Frey model, capsaicin-induced mechanical allodynia. The class given is in vivo, mice. From the text: The von Frey model is a model for allodynia, stimulated mechanically (mechanical allodynia).
Interest of the model: • The injection of capsaicin to experimental animals produces acute pain followed by allodynia • The mechanisms involved in capsaicin-induced acute pain and allodynia are relatively well known (mainly activation of peripheral nociceptors and sensitization of spinal cord neurons, respectively)
After habituation mice were according to FIG. 1 first treated with the test-compound (or not in controls). Then capsaicin (1% DMSO) is injected into their paw resulting in developing pain in the effected paw. The effected paw is then treated with a mechanical stimulus and the latency time before the paw is withdrawn is measured.
2 well known antisense Oligodesoxynucleotides (ODN) against the sigma 1 receptor (King et al. (1997) Eur J Pharmacol 331:R5-R6 and Ueda et al. (2001) J. Pharmacol. Exp. Ther. 298, 703-710) were synthesized and according to the protocol shown in FIG. 3a) given on 4 consecutive days i.c.v. followed by a wash-out period and von-Frey tests according to example 1.

The values that follow come from patent US20090042898A1, “USE OF COMPOUNDS ACTIVE ON THE SIGMA RECEPTOR FOR THE TREATMENT OF MECANICAL ALLODYNIA” (priority 2004, published 2009).

In the case of `CC(C)=CCN1CCC2(C)c3cc(O)ccc3CC1C2C` (stereo not drawn) [pentazocine], in the experiment with sigma receptor, the “affinity to the sigma receptor” value is reported as “very high affinity”.
Regarding `CN1CCN(CCc2ccc(Cl)c(Cl)c2)CC1` [BD-1063, 1-(3,4-dichlorophenethyl)-4-methylpiperazine], the “effect on mechanical allodynia, von Frey model” value in experiment [1] is reported as “antagonizes mechanical allodynia in mice exposed to the (ipsilateral) sciatic nerve injury significantly”.
For the compound `O=C(OCCN1CCOCC1)C1(c2ccccc2)CCCCC1` [PRE-084], the “effect of sigma receptor agonist on the effect of NE-100” value in experiment [2] (FIG. 2c, given with NE-100) is listed as “counteracting the effect of NE-100”.
Take `CCCN(CCC)CCc1ccc(OC)c(OCCc2ccccc2)c1` [NE-100]: the “affinity to the sigma receptor” value in the experiment with sigma receptor was “high affinity”. For the same compound, the “analgesia in capsaicin-induced allodynia, dose dependency” value in experiment [2] (FIG. 2a, mice, von Frey filaments) was “dose dependency of the treatment with NE-100 showing analgesia”. Also, the “efficacy depending on the force of the von-Frey filaments (0.5 g allodynia vs 4 g general pain)” value in experiment [2] (FIG. 2b, NE-100 64 mg/kg) was “effective specifically in allodynia or mechanical allodynia and not general pain”.
